Measurements as given in US7408067B2, “Aza-cyclic compounds as modulators of acetylcholine receptors” (Merck + Co., Inc., priority 2002, dated 2008).
Counter-ions that a name gives are not always drawn.

## CN1CCC(Sc2ccc3[nH]c(=O)[nH]c3c2)CC1 [Example 16, 5-[(1-methyl-4-piperidinyl)sulfanyl]-1,3-dihydro-2H-benzimidazol-2-one]
  melting point: 213.8 to 214.7 °C

## CN1CCC(Sc2ccc3[nH]c(=O)n(C)c(=O)c3c2)CC1 [Example 21, 3-Methyl-6-[(1-methyl-4-piperidinyl)sulfanyl]-2,4(1H,3H)-quinazolinedione]
  melting point: 200.8 to 202.6 °C

## CC(=O)Nc1ccc(SC2CCN(C)CC2)cc1 (as salt: salt) [Example 7, N-{4-[(1-methylpiperidin-4-yl)thio]phenyl}acetamide]
  melting point: 199 to 201 °C

## CN1CCC(Sc2ccc3[nH]c(=O)[nH]c(=O)c3c2)CC1 [Example 17, 6-[(1-methyl-4-piperidinyl)sulfanyl]-2,4(1H,3H)-quinazolinedione]
  melting point: > 260 °C

## CN1CCC(Sc2ccc(N)cc2)CC1 (as salt: hydrochloride) [Example 5, 4-(1-methylpiperidin-4-yl)thiophenylamine]
  melting point: 96 to 98 °C

## CN1CCC(Sc2cc3c(cc2Cl)[nH]c(=O)n3C)CC1 [Example 20, 5-Chloro-1-methyl-6-[(1-methyl-4-piperidinyl)sulfanyl]-1,3-dihydro-2H-benzimidazol-2-one]
  melting point: 210.2 to 211.9 °C

## CN1CCC(Sc2ccc3[nH]c(=O)n(C)c3c2)CC1 [Example 18, 1-Methyl-6-[(1-methyl-4-piperidinyl)sulfanyl]-1,3-dihydro-2H-benzimidazol-2-one]
  melting point: 196.4 to 197.6 °C
